Where “and” joins values, the source holds several entries; their conditions need not be identical. Equal values may be shown once. Read-outs that look alike come from different tables or passages of the source.
Tests used:
Rhinovirus 60, 2268-CV37 [1] = assay: Antiviral activity of 1% LTX-109 against Rhinovirus: 1 hour incubation, filtration, TCID50 endpoint dilution on HeLa cells; type: cell-based, Human Rhinovirus 60; settings: for TCID50/ml ± SEM: average virus titre recovered after 1 hour incubation, 1% LTX-109 (w/v) in PBS or 0.25% SDS, triplicate; for Log decrease: decrease in infectivity as compared to the PBS control; for Log decrease / Percentage: 1 hour; for Log decrease / Log / Percentage: 1% LTX-109 or 0.25% SDS; for Log: log of recovered virus titre after 1 hour incubation; for Percentage: reduction in infectivity as compared to the PBS control
Protocol: (§1) The Rhinovirus used was from BEI Resources: Rhinovirus 60, 2268-CV37 (Catalogue No. NR-51447).
(§2) To test whether 1% LTX-109 (w/v) has antiviral activity against Rhinovirus, 2.24×10^5 infectious units of Rhinovirus (40 μl) were incubated with four volumes of 1% LTX-109 dissolved in PBS (160 μl), alongside a PBS (Phosphate-buffered saline) control and a 0.25% SDS (Sodium dodecyl sulphate) positive control. The treatments were performed in triplicate.
After 1 hour, the incubation was stopped by adding an excess of media, and the liquid was filtered through a filter (Sartorius VivaSpin 6) to separate the virus in order to reduce cytotoxicity on the assay cells. The assay media was DMEM (Gibco 61965-026) supplemented with 2% FBS (Gibco 10500-064), 20 mM Hepes (Gibco 15630-056) and 1×p/s (Gibco 15070063).
(§3) Appropriate controls were also performed.

Rhinovirus 60, 2268-CV37 [2] = assay: Antiviral activity of 3% LTX-109 against Rhinovirus: 1 hour incubation, dilution in media, TCID50 endpoint dilution on HeLa cells; type: cell-based, Human Rhinovirus 60; settings: for Log decrease: decrease in infectivity as compared to the PBS control; for Log decrease / Percentage: 1 hour; for Log decrease / Log / Percentage: 3% LTX-109 or 0.25% SDS; for Log: log of recovered virus titre after 1 hour incubation; for Percentage: reduction in infectivity as compared to the PBS control
Protocol: as §1
as §2, with “3%” for “1%”, “9×10^5” for “2.24×10^5”
After 1 hour, the incubation was stopped by adding 50 μl of mixture to 5 ml of media. The assay media was DMEM (Gibco 61965-026) supplemented with 2% FBS (Gibco 10500-064), 20 mM Hepes (Gibco 15630-056) and 1× p/s (Gibco 15070063).
as §3

[3] = test system: Human Rhinovirus 14, strain 1059; assay: Antiviral (virucidal) activity of 1% LTX-109 against Human Rhinovirus 14: 1 hour incubation, filtration, TCID50 on HeLaM cells; type: cell-based; settings: for TCID50/ml ± SEM: average virus titre recovered, contact time 1 hour at RT, 1% LTX-109 (triplicate) or 2.5% glutaraldehyde in PBS (single replicate); for Log decrease: decrease in infectivity as compared to the PBS control; for Log decrease / % Reduction: contact time 1 hour, 1% LTX-109 or 2.5% glutaraldehyde; for % Reduction: reduction in Rhinovirus 14 infectivity as compared to the PBS control
Protocol: The virus used was from ATCC: Human Rhinovirus 14, strain 1059 (ATCC VR-284, lot number 70049530).
To test whether 1% LTX-109 has virucidal activity against Human Rhinovirus 14, 4×10^7 infectious units of Human Rhinovirus 14 in 40 μl were incubated with four volumes (160 μl) of 1% LTX-109 or a PBS negative control. As a positive control, a buffer containing 2.5% glutaraldehyde in PBS was tested in parallel. Both LTX-109 and negative control were tested in triplicates. The positive control was tested in a single replicate.
(§4) After 1 hour at room temperature (RT), the incubation was stopped by adding an excess of cold assay media (5 ml), and the formulation was physically separated from the virus through a filter (Sartorius VivaSpin 6, 100,000 MWCO, PES) to reduce cytotoxicity on the assay cells. The assay media was DMEM (Gibco 10566016) supplemented with 2% FBS (Gibco 10500064), 20 mM HEPES (Gibco 15630056) and 1× PenStrep (Gibco 15070063).
Concentrated virus was re-suspended in 1 ml of assay media and infectious virus was quantified through a serial dilution (10^−1 to 10^−8) on a monolayer of HeLaM cells plated the day before at 8,000 cells/100 μl/well. […] Specifically, on a 96 well plate, 225 μl of media were placed in each well of 4 columns (32 wells in total). In the 4 wells of the top row (row A), 25 μl of re-suspended virus was added and mixed. With a multichannel pipette, 25 μl of media was then taken from the 4 wells in row A to the next 4 wells in row B, and then from row B to row C, and so on until row H, creating a serial dilution (10^−1 to 10^−8). 200 μl from each well was then added to separate wells containing a monolayer of HeLa M cells. Appropriate controls were also performed.

HeLaM cells [4] = assay: Parallel test without virus: residual cytotoxic effect of LTX-109 on the assay cells (Example 4); settings: dilution at which cytotoxicity on HeLaM cells was observed, after filtration and re-suspension, 1% LTX-109 or 2.5% glutaraldehyde in PBS
Protocol: A parallel test where the same procedure was carried out in the absence of virus was included to determine any residual cytotoxic effect of LTX-109 on the assay cells.

HeLa cells [5] = settings: dilution at which cytotoxicity on HeLa cells was observed, without virus, after filtration, 1% LTX-109 (w/v) in PBS or 0.25% SDS
Protocol: Infectious virus was quantified through a serial dilution of the filtrate (a series of ten-fold dilutions) on monolayers of HeLa cells in microtitre plates (HeLa cells are human cells capable of displaying a cytopathic effect (CPE) upon viral infection). For each dilution of the virus in the dilution series, eight wells of the microtitre plate were tested (i.e. each dilution was applied to eight separate wells, each well containing a HeLa cell monolayer). Appropriate controls were also performed. […] The TCID50 (TCID50/ml) assay (Tissue Culture Infectious Dose 50 assay) is a type of endpoint dilution assay that is well known in the art and routinely used to quantitatively measure virus titres. TCID50/ml provides a measure of infectious units of virus/ml. “/ml” refers to /ml of the starting solution (i.e. neat/undiluted solution) mentioned above. A parallel test where the same procedure was carried out in the absence of virus was included to determine any residual cytotoxic effect of the formulation on the assay cells.

HeLa cells [6] = settings: dilution at which cytotoxicity on HeLa cells was observed, without virus, after dilution, 3% LTX-109 (w/v) in PBS or 0.25% SDS
Protocol: A parallel test where the same procedure was carried out in the absence of virus was included to determine any residual cytotoxic effect of the formulation on the assay cells.

[7] = test system: Rhinovirus (HRV-A60), Strain: 2268-CV37; assay: Antiviral activity of LTX-7 against Rhinovirus: 1 hour incubation, filtration, TCID50 endpoint dilution on HeLaM cells; type: cell-based, Human Rhinovirus 60; settings: for % Reduction: as compared to the PBS control; for % Reduction / Log decrease / Rounded %: contact time 1 hour, 1% LTX-7 or 0.25% SDS; for TCID50/ml ± SEM: average virus titre recovered, contact time 1 hour at RT, 1% LTX-7 (w/v) in PBS or 0.25% SDS in PBS; for Log decrease: decrease in infectivity as compared to the PBS control; for Rounded %: rounded % reduction as compared to the PBS control
Protocol: The Rhinovirus used was from BEI Resources: Rhinovirus (HRV-A60), Strain: 2268-CV37 (BEI Resources Catalogue Number NR-51447).
To test whether LTX-7 has antiviral activity against Rhinovirus, 5×10^5 infectious units of Rhinovirus (40 μl) were incubated with four volumes of 1% LTX-7 (w/v) dissolved in PBS (160 μl) or a PBS (Phosphate-buffered saline) negative control. As a positive control, a buffer containing 0.25% SDS (Sodium dodecyl sulphate) in PBS was tested in parallel. Each sample and the PBS control were tested in triplicates.
as §4, with “PES (Sartorius, VS0642))” for “PES)”, “61965-026)” for “10566016)”, “10500-064),” for “10500064),”, “Hepes” for “HEPES”, “15630-056)” for “15630056)”, “p/s” for “PenStrep”
The starting solution for the serial dilution (i.e. the neat (or undiluted) solution or 10^0 solution) was obtained by re-suspending the virus that was separated via the filtration step in 1 ml of assay media. […] Appropriate controls were also performed.

HeLaM cells [8] = settings: dilution at which cytotoxicity on HeLaM cells was observed, without virus, after filtration, 1% LTX-7 (w/v) in PBS or 0.25% SDS
Protocol: A parallel test where the same procedure was carried out in the absence of virus was included to determine any residual cytotoxic effect of LTX-7 on the assay cells.

[9] = listed as POSITIVE CONTROL (SDS), sulphate

| SMILES | TCID50/ml ± SEM (Rhinovirus 60, 2268-CV37 [1]) | Log decrease (Rhinovirus 60, 2268-CV37 [1]) [logs] | Log (Rhinovirus 60, 2268-CV37 [1]) | Percentage (Rhinovirus 60, 2268-CV37 [1]) [%] | Log decrease (Rhinovirus 60, 2268-CV37 [2]) [logs] | Log (Rhinovirus 60, 2268-CV37 [2]) | Percentage (Rhinovirus 60, 2268-CV37 [2]) [%] | TCID50/ml ± SEM [3] [TCID50/ml] | Log decrease [3] [logs] | % Reduction [3] [%] | Cytotoxicity (HeLaM cells [4]) | Cytotoxicity (HeLa cells [5]) | Cytotoxicity (HeLa cells [6]) | % Reduction [7] [%] | Log decrease [7] [logs] | also measured |
| --- | --- | --- | --- | --- | --- | --- | --- | --- | --- | --- | --- | --- | --- | --- | --- | --- |
| CC(C)(C)c1cc(C(C)(C)C)c2[nH]c(C(C)(C)C)c(CC(NC(=O)C(N)CCCNC(=N)N)C(=O)NC(CCCNC(=N)N)C(=O)NCCc3ccccc3)c2c1 (stereo not drawn) [LTX-109] | 4.8E+03 TCID50/ml and 4.80E+03 ± 8.21E+02 TCID50/ml | 1.9 | 3.7 | 98.89 | 1.9 | 2.3 | 98.87 | 1.80E+06 | 1.05 | 91.2 | 10^−1 | only cytotoxic before any serial dilutions are performed | only cytotoxic before any serial dilutions are performed |  |  | TCID50/ml ± SEM ([3]; listed as 1% LTX-109): 1.80E+06 (±3.08 ± 05) TCID50/ml; % Reduction ([3]; listed as 1% LTX-109): 91.2% and 91.17%; Cytotoxicity (HeLa cells [5]; listed as 1% LTX-109): observed (only) with the neat application and Neat; Cytotoxicity (HeLa cells [6]; listed as 3% LTX-109): Neat; Cytotoxicity (HeLa cells [6]; listed as 3% formulation): observed (only) with the neat application |
| CCCCCCCCCCCCOS(=O)(=O)[O-].[Na+] [SDS, Sodium dodecyl sulphate, reference compound] | 1.00E+02 TCID50/ml | 3.6 | 2.0 | 99.98 | 3.0 | 1.2 | 99.91 |  |  |  |  | Neat | Neat | 99.983 | 3.67 | TCID50/ml ± SEM (Rhinovirus 60, 2268-CV37 [2]; average virus titre recovered after 1 hour incubation, 3% LTX-109 (w/v) in PBS or 0.25% SDS, triplicate): 1.58E+01 TCID50/ml; TCID50/ml ± SEM [7, 9]: 1.58E+01 (SEM ND) TCID50/ml; TCID50/ml ± SEM ([7]; sulphate): 1.58E+01 TCID50/ml; Rounded % [7, 9]: 99.9%; Rounded % ([7]; sulphate): ~99.9%; Cytotoxicity (HeLaM cells [8]; [9]): Neat; Cytotoxicity (HeLaM cells [8]; sulphate): observed (only) with the neat application |
| O=CCCCC=O [Positive Control, glutaraldehyde, reference compound] |  |  |  |  |  |  |  | 3.75E+01 | 5.74 | 99.9998 | Neat |  |  |  |  | % Reduction ([3]; listed as 2.5% glutaraldehyde in PBS): ~99.9% |
| N=C(N)NCCCC(N)C(=O)NC(Cc1ccc(-c2ccc3ccccc3c2)cc1)C(=O)NC(CCCNC(=N)N)C(=O)NCCc1ccccc1 (stereo not drawn) [LTX-7, Arg-Phe(4-(2-Naphthyl))-Arg-NH—CH2—CH2-Ph] |  |  |  |  |  |  |  |  |  |  |  |  |  | 95.791 | 1.33 | TCID50/ml ± SEM [7]: 3.86E+03 TCID50/ml and 3.86E+03 ± 1.14E+03 TCID50/ml; Cytotoxicity (HeLaM cells [8]): observed (only) with the neat application and only cytotoxic before any serial dilutions are performed and Neat |
